The subject of data set [1] is panel of cell lines (HCC-1806, HCC-1937, BT-549, MDA-MB-157, MCF-7, CAL-51, MDA-MB-453, ZR-75-1, OVCAR-3, OVCAR-5). As to the kind of experiment: 96 h cell growth assay (Example 19). Format: cell-based. Particulars: Homo sapiens, KIF18A inhibitor-sensitive cells (e.g., OVCAR-3 and BT-549), read-out: Mean Count EC50. Here is the method: KIF18A inhibitor cancer cell line sensitivity profiles were determined for KIF18A inhibitor Compounds C9 and C11. Cells of various cancer cell lines were treated with DMSO or increasing concentrations of C9 or C11 for 96 h. The concentration-response profiles of some cancer cell lines (including, e.g., BT-549, OVCAR-3) for C11 were similar. […] Cancer cell lines CAL-51, MDA-MG-453 and OVCAR-5 were insensitive to C9 and C11.
Cell growth assay. A panel of cell lines (HCC-1806, HCC-1937, BT-549, MDA-MB-157, MCF-7, CAL-51, MDA-MB-453, ZR-75-1, OVCAR-3, OVCAR-5) were seeded in 96-well plate at densities optimized for 96 h cell growth assay. The next day, cells were treated with DMSO or one of the following compounds: KIF18A Inhibitor Compounds C9 and C11, or palbociclib, with top concentration of 6 μM (19-point concentration range) using staggered dose method. After 96 h, cells were fixed, stained, imaged, and analyzed as described above. Valid nuclear object counts were determined for each well and Count POC value was computed using the following formula [Count POC=(valid nuclear object count in treated well)+(valid nuclear object count in DMSO treated wells)×100]. Concentration-response curve-fitting was performed by 4-parameter non-linear regression equation using GraphPad Prism 7.05. Mean Count EC50 value was computed for each cell line from two independent experiments run in duplicate. […]

Data set [2] deals with human bone marrow mononuclear cells (HBMNC). As to the kind of experiment: BrdU cell cycle analysis and live cell count in normal cells. Format: cell-based. Particulars: two normal donors; for BrdU incorporation (cell cycle analysis) relative to DMSO/vehicle control: 48 h, C9, C11, palbociclib 1 μM, ispinesib 0.05 μM, paclitaxel; for live cell count relative to vehicle control: 96 hours. Here is the method: The effect KIF18A inhibitor treatment has on proliferation of normal somatic cells (e.g., not neoplastic cells) was tested by assaying proliferation of human bone marrow mononuclear cells (HBMNCs), primary human foreskin fibroblast cells (hFSF) and human mammary epithelial cells via a 5-bromo-2′-deoxyuridine (BrdU) incorporation assay in which BrdU, an analog of the nucleoside thymidine, is used to identify proliferating cells (Payton et. al., Molecular Cancer Therapeutics, 17(12):2575-85 (2018)). Cells were analyzed on BD LSRFortessa flow cytometer using BD FACSDiva software (BD Biosciences), and post-acquisition data analysis was performed using FSC-Express software (De Novo). The percentage of BrdU positive gated events on the stacked DNA content histograms were reported.
To further examine the effects of KIF18A inhibitor treatment on HBMNC, two normal donors were assessed using the BrdU coupled cell cycle assay and cell count assay (96 hours) was. […] In particular, the amount of BrdU-stained proliferating cells treated with Ispinesib, paclitaxel, or a CDK 4/6 inhibitor (palbociclib) was far less than the amount of vehicle control-treated BrdU-stained cells. […] KIF18A inhibitor treatment was also analyzed for impact on live cell count. After 96 hours, live cells were counted by Vi-CELL XR Cell Viability Analyzer (Beckman Coulter).
To investigate whether KIF18A inhibitors could circumvent this normal cell toxicity barrier, we examined the effects of Compounds C9 and C11 on a panel of cycling normal somatic cell types. First, we treated human bone marrow mononuclear cells (HBMNC) from two normal donors with DMSO, Compound C9 and C11 at 1 μM, ispinesib at 0.05 μM, paclitaxel at 0.05 μM, or palbociclib at 1 μM for 48 h (cell cycle) or 96 h (cell growth).
BrdU and cell cycle analysis. Human bone marrow mononuclear cells (HBMNCs) from two normal donors (#37612, #37534) were cultured for 8 days in defined media as previously described (Payton et al 2018). HBMNCs were seeded in 24-well plate at 1.2×10^6 cells per well in duplicate plates. Cells were treated with DMSO, Compound C9 (1 μM), Compound C11 (1 μM), ispinesib (0.05 μM), paclitaxel ([…]), or palbociclib (1 μM). Cells were collected at 48 h (cell cycle) and 96 h (cell growth). The first set of plates were pulsed with BrdU for 2 h and processing for BrdU cell cycle analysis as previously described (Payton et al 2018). Cells were analyzed on BD LSRFortessa flow cytometer running BD FACSDiva software and post-acquisition data analysis was performed using FSC-Express software. Data was reported for the percentage of BrdU and subG1 gated populations. The second set of plates were collected, and cells counted using Vi-CELL XR Cell Viability Analyzer (Beckman Coulter).

Data set [3] has as its system human OVCAR-8 HGSOC xenograft model (TP53MUT, BRCA1silenced). As to the kind of experiment: OVCAR-8 xenograft efficacy study, oral dosing (Example 4). It is filed as in vivo, mouse. As to the method: Female athymic nude mice were injected with 5×10^6 OVCAR-8 cells in 0.1 mL subcutaneously in the right flank. […] Tumor volume and animal body weight measurements were determined twice per week (study start day 25, study end day 47). Tumor measurements, formulas, and regression analysis as described above for FIGS. 5A-5B. Data was plotted using GraphPad Prism software (V7.0.4), tumor volume and body weight data are expressed as means plus or minus standard error of the mean and plotted as a function of time. Statistical significance of observed differences between growth curves were calculated using SLACR package (v.1.0.3).

The structures appear in SMILES notation. pEC50: −log10 of the molar value. Entries after “also recorded” stand apart in the source; their conditions may differ.

For the compound `CC(C)(C)NS(=O)(=O)c1cccc(NC(=O)c2ccc(S(=O)(=O)NC(C)(C)C)cc2N2CCC3(CC2)CC3)c1` [Compound C9, 4-(N-(tert-butyl)sulfamoyl)-N-(3-(N-(tert-butyl)sulfamoyl)phenyl)-2-(6-azaspiro[2.5]octan-6-yl)benzamide], the pEC50 in data set [1] is 7.68. Besides, in data set [2], the “BrdU incorporation (cell cycle analysis) relative to DMSO/vehicle control” value is given as “about the same; also recorded: minimal diminution in BrdU incorporation” and the “live cell count relative to vehicle control” value is given as “little to no effect; also recorded: comparable cell counts”.

As to `Cc1cc(NC(=O)c2ccc(NS(=O)(=O)CCO)cc2N2CCC3(CC2)CC3)nc(N2CCC(F)(F)CC2)n1` [Compound C14, N-(2-(4,4-Difluoropiperidin-1-yl)-6-methylpyrimidin-4-yl)-4-((2-hydroxyethyl)sulfonamido)-2-(6-azaspiro[2.5]octan-6-yl)benzamide], in data set [3] (10 mg/kg PO QD, day 25 to day 47), the “tumor growth inhibition (TGI)” value was 57%. For the same compound, the tumor-free animals in data set [3] (30 mg/kg PO QD) is 4 of 10; in data set [3] (100 mg/kg PO QD) it was 8 of 10. Moreover, the tumor regression stood at 86% in data set [3] (30 mg/kg PO QD, day 25 to day 47) and 98% in data set [3] (100 mg/kg PO QD, day 25 to day 47).

As for `CC(C)(CO)Nc1ccc(C(=O)Nc2cccc(S(=O)(=O)C3CCCC3)c2)c(N2CCC3(CC2)CC3)n1` [Compound C11, N-(3-(cyclopentylsulfonyl)phenyl)-6-((1-hydroxy-2-methylpropan-2-yl)amino)-2-(6-azaspiro[2.5]octan-6-yl)nicotinamide], the pEC50 in data set [1] is 7.33. In addition, in data set [2], the “BrdU incorporation (cell cycle analysis) relative to DMSO/vehicle control” value is reported as “about the same; also recorded: minimal diminution in BrdU incorporation” and the “live cell count relative to vehicle control” value is “little to no effect; also recorded: comparable cell counts”.
